Among the test systems are K-562 leukemia; SF-539 CNS; SR leukemia; SK-MEL-2 melanoma; IGROV1 ovarian; MCF7 breast; NCI-H460 lung; EKVX NSCLC; CCRF-CEM leukemia; CAKI-1 renal.
What all share (assay): NCI tumour cell line growth inhibition, 48 h

Values joined by “and” are separate entries in the source; they are usually repeats but may differ in a detail not shown here. Equal entries are not always repeated.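 Exposure lasted 48 hours, with cells grown in 96-well plates and compounds tested at five concentrations. GI50 = concentration required for 50% inhibition of growth. TGI is the concentration that stops growth completely.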

Consider `C=CC[Se]C(=O)Cc1c(C)n(C(=O)c2ccc(Cl)cc2)c2ccc(OC)cc12`, for which the GI50 was 3220 nM with K-562 leukemia; 1660 nM in the assay on SF-539 CNS; 2290 nM in the assay on SR leukemia; 1.94 µM in the assay with SK-MEL-2 melanoma; 1880 nM in the assay with IGROV1 ovarian; 1810 nM in the assay with MCF7 breast. Also, the GI50 in the assay on NCI-H460 lung was 491 nM; in the assay with EKVX NSCLC, 1.73 µM; in the assay with CCRF-CEM leukemia, 2580 nM; in the assay with CAKI-1 renal, 1660 nM. The TGI in the assay on K-562 leukemia was 19.2 µM; in the assay on SF-539 CNS, 3.02 µM; in the assay on SR leukemia, 8.19 µM; in the assay with SK-MEL-2 melanoma, 4.14 µM; with IGROV1 ovarian, 3.75 µM; in the assay on MCF7 breast, 4.17 µM. The TGI was found to be 3.19 µM in the assay on NCI-H460 lung, 3.55 µM with EKVX NSCLC, 7.64 µM in the assay with CCRF-CEM leukemia and 3.05 µM in the assay with CAKI-1 renal.

Consider `O=C1C(Cl)=C(Nc2cccc(C(F)(F)F)c2)C(=O)N1Cc1ccccc1Cl`, for which the GI50 was 4360 nM in the assay with K-562 leukemia; 1910 nM in the assay on SF-539 CNS; 3720 nM in the assay with SR leukemia; 4.08 µM in the assay on SK-MEL-2 melanoma; 186 nM in the assay on IGROV1 ovarian; 4210 nM in the assay on MCF7 breast. In addition, the GI50 with NCI-H460 lung was 6190 nM; with EKVX NSCLC it was 15.7 µM; with CCRF-CEM leukemia, 1230 nM; with CAKI-1 renal, 4840 nM. Besides, the TGI in the assay with K-562 leukemia is 26.5 µM; in the assay with SF-539 CNS it was 10.7 µM; with SR leukemia it was 28 µM; with SK-MEL-2 melanoma, 19.8 µM; with IGROV1 ovarian it was 11.2 µM; with MCF7 breast it was over 31.8 µM. Further, the TGI in the assay on NCI-H460 lung came to 22.4 µM; in the assay on EKVX NSCLC, 37 µM; with CAKI-1 renal, 21.6 µM.

Regarding `O=C(O)c1ccc(-c2ccc(C(=O)O)cc2I)c(I)c1`, the GI50 with K-562 leukemia was over 100000 nM; in the assay on SF-539 CNS it was over 100000 nM; with SR leukemia, over 100000 nM; with SK-MEL-2 melanoma it was over 100 µM; with IGROV1 ovarian, over 100000 nM; in the assay on MCF7 breast it was over 100000 nM. Further, the GI50 with NCI-H460 lung is over 100000 nM; in the assay on EKVX NSCLC it was over 100 µM; in the assay on CCRF-CEM leukemia it was over 100000 nM; with CAKI-1 renal it was over 100000 nM. The TGI in the assay on K-562 leukemia, in the assay on SF-539 CNS, in the assay on SR leukemia, with SK-MEL-2 melanoma, in the assay on IGROV1 ovarian and in the assay with MCF7 breast was over 100 µM each time. Besides, the TGI in the assay with NCI-H460 lung, in the assay with EKVX NSCLC, in the assay with CCRF-CEM leukemia and in the assay on CAKI-1 renal was over 100 µM throughout.

In the case of `COc1cc(C2CC(c3ccc4c(c3)OCO4)=NN2C(C)=O)cc(OC)c1OC` (stereo not given), the GI50 in the assay on K-562 leukemia is 353 nM; in the assay on SF-539 CNS, 592 nM; in the assay with SR leukemia it was 330 nM; in the assay on SK-MEL-2 melanoma, over 100 µM; in the assay on IGROV1 ovarian, 1190 nM; in the assay with MCF7 breast, 352 nM. In addition, the GI50 in the assay with NCI-H460 lung was 398 nM; in the assay with EKVX NSCLC it was 3.13 µM; in the assay on CCRF-CEM leukemia, 790 nM; in the assay on CAKI-1 renal, 715 nM. The TGI was over 100 µM in the assay with K-562 leukemia; 7.29 µM in the assay with SF-539 CNS; over 37 µM with SR leukemia; over 100 µM in the assay with SK-MEL-2 melanoma; 97.3 µM in the assay with IGROV1 ovarian; over 100 µM in the assay on MCF7 breast. Further, the TGI in the assay on NCI-H460 lung is over 59.8 µM; in the assay on EKVX NSCLC, over 100 µM; in the assay with CCRF-CEM leukemia it was over 27 µM; in the assay on CAKI-1 renal it was over 100 µM.

Take `Oc1ccc(/C=N/Nc2nc3ccccc3s2)c(O)c1`: the GI50 with K-562 leukemia was 2590 nM; in the assay with SF-539 CNS it was 1890 nM; with SR leukemia it was 1530 nM; with IGROV1 ovarian, 904 nM; with MCF7 breast, 1650 nM; with NCI-H460 lung, 1780 nM. Further, the GI50 in the assay with EKVX NSCLC is 2.86 µM; with CCRF-CEM leukemia, 717 nM; in the assay with CAKI-1 renal, 1070 nM. Moreover, the TGI is over 100 µM in the assay on K-562 leukemia; 9.82 µM in the assay on SF-539 CNS; 11.4 µM in the assay on SR leukemia; 10.8 µM with IGROV1 ovarian; 9.39 µM with MCF7 breast; 5.21 µM in the assay with NCI-H460 lung. The TGI was over 100 µM in the assay with EKVX NSCLC, over 100 µM with CCRF-CEM leukemia and 15.7 µM in the assay with CAKI-1 renal.

In the case of `O=C1C=CN(C2OC(CO)C(O)C2O)C(=O)C1` (stereo not given), the TGI is over 2500 µM in the assay on K-562 leukemia; 625 µM and 1800 µM with SF-539 CNS; over 2500 µM in the assay with SR leukemia; 625 µM and > 2500 µM with SK-MEL-2 melanoma; 625 µM and > 2210 µM in the assay with IGROV1 ovarian; 625 µM and > 2500 µM in the assay with MCF7 breast. The TGI with NCI-H460 lung is 625 µM and 569 µM; in the assay with EKVX NSCLC, over 2500 µM; with CCRF-CEM leukemia it was over 1710 µM; in the assay on CAKI-1 renal, 296 µM and 1010 µM. In addition, the GI50 in the assay on SF-539 CNS was 146000 nM; in the assay on SK-MEL-2 melanoma, 115 µM and 1040 µM; in the assay on IGROV1 ovarian, 77000 nM; in the assay with MCF7 breast, 4630 nM; with NCI-H460 lung, 728 nM; in the assay on CCRF-CEM leukemia it was over 625000 nM. Also, in the assay on CAKI-1 renal, the GI50 was 17300 nM.

Take `COc1ccc(OC)c(-c2cc(-c3ccccc3)nn2-c2ccc(S(N)(=O)=O)cc2)c1`: the GI50 in the assay on K-562 leukemia is 2680 nM; in the assay on SF-539 CNS it was 18700 nM; in the assay on SR leukemia it was 2820 nM; in the assay on SK-MEL-2 melanoma, 27.5 µM; with IGROV1 ovarian it was 23300 nM; in the assay with MCF7 breast, 3080 nM. The GI50 with NCI-H460 lung is 11000 nM; in the assay on EKVX NSCLC it was 18.1 µM; with CCRF-CEM leukemia it was 4170 nM; in the assay on CAKI-1 renal, 14800 nM. Also, the TGI with K-562 leukemia is 6.38 µM; with SF-539 CNS it was 36.6 µM; in the assay on SR leukemia, over 100 µM; with SK-MEL-2 melanoma, over 100 µM; in the assay with IGROV1 ovarian, over 100 µM; in the assay with MCF7 breast, 16 µM. In addition, the TGI in the assay with NCI-H460 lung was 77.3 µM; with EKVX NSCLC, 39.1 µM; with CCRF-CEM leukemia, over 100 µM; with CAKI-1 renal, 32.8 µM.

Take `COc1cccc(Cn2cc3c(c2)-c2oncc2CC3)c1`: the GI50 in the assay with K-562 leukemia is 315 nM; with SF-539 CNS, 266 nM; in the assay on SR leukemia, 312 nM; in the assay on IGROV1 ovarian, 801 nM; in the assay with MCF7 breast it was 378 nM; in the assay on NCI-H460 lung, 338 nM. For the same compound, the GI50 in the assay with EKVX NSCLC was 0.508 µM; in the assay with CCRF-CEM leukemia, 253 nM; in the assay on CAKI-1 renal it was 354 nM. Moreover, the TGI in the assay on K-562 leukemia was over 100 µM; in the assay on SR leukemia, 6.03 µM; in the assay on IGROV1 ovarian, over 100 µM; with MCF7 breast, over 100 µM; with NCI-H460 lung, 4.1 µM; in the assay on EKVX NSCLC, over 77 µM. Further, the TGI in the assay with CAKI-1 renal was over 84.8 µM.

For the origin of these results see PubChem BioAssay (NCI).
